Laboratory results taken from US10239925B2, “Peptides and combination of peptides for use in immunotherapy against ovarian cancer and other cancers” (IMMATICS BIOTECHNOLOGIES GMBH, priority 2015, dated 2019).

Key:
HLA-A*02:01 = HLA-A*02:01 (Homo sapiens, UniProt P04439, D140Y/D185E/D98H/E176V/E277Q/G131W/G231S/I119V/I121R/I166T/I218V/L300P/L318F/N151K/N90K/P208A/P217A/Q86G/Q94H/R138H/R169H/T345S); experiment: MHC binding assay (UV-ligand exchange, anti-β2m ELISA, peptide exchange yield); conditions: binding to HLA-A*02:01
Summary of the method: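 Yield of stabilized complexes quantified via the β2m light chain in an ELISA (streptavidin capture, 100-fold diluted monomers, HRP anti-β2m 2 ug/ml at 37 °C, TMB, A450). The complexes come from UV-triggered replacement of a photocleavable ligand by the candidate peptide.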

CD8+ T cells = experiment: In vitro immunogenicity: priming of CD8+ T cells with aAPCs loaded with peptide/MHC and anti-CD28, multimer readout; format: cell-based, human; conditions: for Wells positive [%]: HLA-A*02 restricted peptides, percentage of positive wells (among evaluable); for donors: percentage of positive donors; for wells: percentage of positive wells
Protocol: In an aspect, the peptides are pre-screened for immunogenicity before being included in the warehouse. By way of example, and not limitation, the immunogenicity of the peptides included in the warehouse is determined by a method comprising in vitro T-cell priming through repeated stimulations of CD8+ T cells from healthy donors with artificial antigen presenting cells loaded with peptide/MHC complexes and anti-CD28 antibody.
FIGS. 3A to 3F show exemplary immunogenicity data: flow cytometry results after peptide-specific multimer staining. CD8+ T cells were primed using artificial APCs coated with anti-CD28 mAb and HLA-A*02 in complex with SeqID No 662 (FIG. 3A, left panel), SeqID No 663 (FIG. 3B, left panel), SeqID No 11 peptide (FIG. 3C, left panel), SeqID No 198 peptide (FIG. 3D, left panel), SeqID No 587 peptide (FIG. 3E, left panel) and SeqID No 427 peptide (FIG. 3F, left panel), respectively. After three cycles of stimulation, the detection of peptide-reactive cells was performed by 2D multimer staining with A*02/SeqID No 662 (FIG. 3A), A*02/SeqID No 663 (FIG. 3B), A*02/SeqID No 11 (FIG. 3C), A*02/SeqID No 198 (FIG. 3D), A*02/SeqID No 587 (FIG. 3E) or A*02/SeqID No 427 (FIG. 3F). Right panels (FIGS. 3A, 3B, 3C, 3D, 3E, and 3F) show control staining of cells stimulated with irrelevant A*02/peptide complexes. Viable singlet cells were gated for CD8+ lymphocytes. Boolean gates helped excluding false-positive events detected with multimers specific for different peptides. Frequencies of specific multimer+ cells among CD8+ lymphocytes are indicated.
In Vitro Immunogenicity for MHC Class I Presented Peptides
In order to obtain information regarding the immunogenicity of the TUMAPs of the present invention, the inventors performed investigations using an in vitro T-cell priming assay based on repeated stimulations of CD8+ T cells with artificial antigen presenting cells (aAPCs) loaded with peptide/MHC complexes and anti-CD28 antibody.
In Vitro Priming of CD8+ T Cells
In order to perform in vitro stimulations by artificial antigen presenting cells loaded with peptide-MHC complex (pMHC) and anti-CD28 antibody, the inventors first isolated CD8+ T cells from fresh HLA-A*02 leukapheresis products via positive selection using CD8 microbeads (Miltenyi Biotec, Bergisch-Gladbach, Germany) of healthy donors obtained from the University clinics Mannheim, Germany, after informed consent.
PBMCs and isolated CD8+ lymphocytes were incubated in T-cell medium (TCM) until use consisting of RPMI-Glutamax (Invitrogen, Karlsruhe, Germany) supplemented with 10% heat inactivated human AB serum (PAN-Biotech, Aidenbach, Germany), 100 U/ml Penicillin/100 μg/ml Streptomycin (Cambrex, Cologne, Germany), 1 mM sodium pyruvate (CC Pro, Oberdorla, Germany), 20 μg/ml Gentamycin (Cambrex). 2.5 ng/ml IL-7 (PromoCell, Heidelberg, Germany) and 10 U/ml IL-2 (Novartis Pharma, Nümberg, Germany) were also added to the TCM at this step.
Generation of pMHC/anti-CD28 coated beads, T-cell stimulations and readout was performed in a highly defined in vitro system using four different pMHC molecules per stimulation condition and 8 different pMHC molecules per readout condition.
The purified co-stimulatory mouse IgG2a anti human CD28 Ab 9.3 (Jung et al., 1987) was chemically biotinylated using Sulfo-N-hydroxysuccinimidobiotin as recommended by the manufacturer (Perbio, Bonn, Germany). Beads used were 5.6 μm diameter streptavidin coated polystyrene particles (Bangs Laboratories, Illinois, USA).
pMHC used for positive and negative control stimulations were A*0201/MLA-001 (peptide […] (SEQ ID NO. 664) from modified Melan-A/MART-1) and A*0201/DDX5-001 ([…] from DDX5, SEQ ID NO. 665), respectively.
800.000 beads/200 μl were coated in 96-well plates in the presence of 4×12.5 ng different biotin-pMHC, washed and 600 ng biotin anti-CD28 were added subsequently in a volume of 200 μl. […]

Substance | Peptide exchange (MHC class I binding score, peptide exchange yield) (HLA-A*02:01) | Wells positive [%] (CD8+ T cells) | donors (CD8+ T cells) | wells (CD8+ T cells)
157 (SLNDEVPEV; listed as Homo sapiens) [compound 157] | “++” (>20% = ++) | “+++” (50% - 69% = +++) |  | 
152 (ILFEDIFDV; listed as Homo sapiens) [compound 152] | “+++” (>50 = +++) | “++” (20% - 49% = ++) |  | 
499 (KIFDIDEAEEGV; listed as Homo sapiens) [compound 499] | “++” (>20% = ++) | “+” (<20% = +) |  | 
215 (QLINHLHAV; listed as Homo sapiens) [compound 215] | “+++” (>50 = +++) | “++” (20% - 49% = ++) |  | 
443 (GLWEIENNPTV; listed as Homo sapiens) [compound 443] | “+++” (>50 = +++) | “+” (<20% = +) |  | 
108 (ALFPGVALLLA; listed as Homo sapiens) [compound 108] | “++++” (>75% = ++++) | “++” (20% - 49% = ++) |  | 
395 (ALALGGIAVV; listed as Homo sapiens) [compound 395] | “++++” (>75% = ++++) | “+++” (50% - 69% = +++) |  | 
17 (GLLPGDRLVSV; listed as Homo sapiens) [compound 17] | “+++” (>50 = +++) | “++” (20% - 49% = ++) |  | 
8 (FTLGNVVGMYL; listed as Homo sapiens) [compound 8] | “++++” (>75% = ++++) | “+” (<20% = +) |  | 
56 (KLYEGIPVLL; listed as Homo sapiens) [compound 56] | “++++” (>75% = ++++) | “+” (<20% = +) |  | 
150 (RLWEEGEELEL; listed as Homo sapiens) [compound 150] | “+++” (>50 = +++) | “+” (<20% = +) |  | 
19 (FMVDNEAIYDI; listed as Homo sapiens) [compound 19] | “++++” (>75% = ++++) | “++” (20% - 49% = ++) |  | 
663 (KIQEMQHFL; listed as Homo sapiens) [compound 663] |  |  | +++ (50% - 69% = +++) | + (<20% = +)
49 (YLPAVFEEV; listed as Homo sapiens) [compound 49] | “+++” (>50 = +++) | “++” (20% - 49% = ++) |  | 
79 (SLFIGEKAVLL; listed as Homo sapiens) [compound 79] | “+++” (>50 = +++) | “+” (<20% = +) |  | 
662 (KIQEILTQV; listed as Homo sapiens) [compound 662] |  |  | +++ (50% - 69% = +++) | + (<20% = +)
242 (AIAYILQGV; listed as Homo sapiens) [compound 242] | “++” (>20% = ++) | “+++” (50% - 69% = +++) |  | 
166 (YLNHLEPPV; listed as Homo sapiens) [compound 166] | “+++” (>50 = +++) | “++++” (≥70% = ++++) |  | 
36 (YVLEDLEVTV; listed as Homo sapiens) [compound 36] | “++” (>20% = ++) | “+” (<20% = +) |  | 

Substance | Peptide exchange (MHC class I binding score, peptide exchange yield) (HLA-A*02:01) | Wells positive [%] (CD8+ T cells) | donors (CD8+ T cells) | wells (CD8+ T cells)
319 (SLEPQIQPV; listed as Homo sapiens) [compound 319] | “++” (>20% = ++) | “+” (<20% = +) |  | 
460 (AMLEKNYKL; listed as Homo sapiens) [compound 460] | “++++” (>75% = ++++) | “+” (<20% = +) |  | 
384 (ILFANPNIFV; listed as Homo sapiens) [compound 384] | “+++” (>50 = +++) | “+” (<20% = +) |  | 
659 (ILFPDIIARA; listed as Homo sapiens) [compound 659] |  |  | +++ (50% - 69% = +++) | + (<20% = +)
652 (TLWYRAPEV; listed as Homo sapiens) [compound 652] |  |  | ++++ (≥70% = ++++) | +++ (50% - 69% = +++)
446 (QLIPALAKV; listed as Homo sapiens) [compound 446] | “+++” (>50 = +++) | “++” (20% - 49% = ++) |  | 
40 (TLLVKVFSV; listed as Homo sapiens) [compound 40] | “+++” (>50 = +++) | “++” (20% - 49% = ++) |  | 
191 (LLQEGQALEYV; listed as Homo sapiens) [compound 191] | “++” (>20% = ++) | “+++” (50% - 69% = +++) |  | 
247 (VLLPNDLLEKV; listed as Homo sapiens) [compound 247] | “+++” (>50 = +++) | “+” (<20% = +) |  | 
489 (KMWEELPEVV; listed as Homo sapiens) [compound 489] | “+++” (>50 = +++) | “+” (<20% = +) |  | 
648 (LLWGNAIFL; listed as Homo sapiens) [compound 648] |  |  | +++ (50% - 69% = +++) | ++ (20% - 49% = ++)
2 (SLLEADPFL; listed as Homo sapiens) [compound 2] | “+++” (>50 = +++) | “+” (<20% = +) |  | 
518 (KLNAEVACV; listed as Homo sapiens) [compound 518] | “+++” (>50 = +++) | “++” (20% - 49% = ++) |  | 
7 (SLVGLLLYL; listed as Homo sapiens) [compound 7] | “++++” (>75% = ++++) | “++” (20% - 49% = ++) |  | 
11 (KIFEMLEGV; listed as Homo sapiens) [compound 11] | “+++” (>50 = +++) | “+” (<20% = +) |  | 
60 (SLTIDGIYYV; listed as Homo sapiens) [compound 60] | “++++” (>75% = ++++) | “++++” (≥70% = ++++) |  | 
603 (FLIEPEHVNTV; listed as Homo sapiens) [compound 603] | “++” (>20% = ++) | “+” (<20% = +) |  | 
199 (ALQDVPLSSV; listed as Homo sapiens) [compound 199] | “+++” (>50 = +++) | “+” (<20% = +) |  | 
